# Data from patent US9399626B2, “2-thiopyrimidinones” (Pfizer Inc., priority 2011, dated 2016).
# Where a name gives a salt, the structure may show the parent alone.
# Biological target: T1, MPO (purified from human polynuclear leukocytes) (Homo sapiens, UniProt P05164)
# T1 construct: purified from human polynuclear leukocytes; purchased Calbiochem/EMD Biosciences; host or cells: human polynuclear leukocytes (natural source)
# Experiment: MPO Amplex Red Activity Assay
# Type: biochemical
# Settings: Table 1, 2 μM H2O2, pH 7.4
# Method in brief: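 Human leukocyte MPO […] oxidises 30 μM Amplex Red with 2 μM H2O2 in 50 mM NaPi pH 7.4, 150 mM NaCl, 1 mM DTPA, 2% DMSO. Resorufin fluorescence (ex 530/em 580 nm) read every 20 s, minus catalase background. kobs from the first 600 s, corrected for auto-inactivation, fit versus [I] for kinact/KI.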
# T1 sequence (P05164 279-745 limits assumed): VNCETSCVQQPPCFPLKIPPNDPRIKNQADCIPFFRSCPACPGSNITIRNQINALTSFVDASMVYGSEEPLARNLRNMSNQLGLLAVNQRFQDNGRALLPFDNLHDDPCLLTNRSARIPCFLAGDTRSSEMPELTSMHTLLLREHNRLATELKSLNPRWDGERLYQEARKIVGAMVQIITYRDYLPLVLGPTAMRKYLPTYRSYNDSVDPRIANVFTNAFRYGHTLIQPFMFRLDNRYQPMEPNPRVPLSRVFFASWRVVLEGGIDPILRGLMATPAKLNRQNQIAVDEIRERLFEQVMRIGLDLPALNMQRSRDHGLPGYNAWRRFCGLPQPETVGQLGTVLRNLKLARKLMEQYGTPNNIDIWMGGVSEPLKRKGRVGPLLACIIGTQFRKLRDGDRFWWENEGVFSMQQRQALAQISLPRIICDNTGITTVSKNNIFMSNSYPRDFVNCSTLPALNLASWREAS
# T1 sequence (P05164 165-273 limits assumed): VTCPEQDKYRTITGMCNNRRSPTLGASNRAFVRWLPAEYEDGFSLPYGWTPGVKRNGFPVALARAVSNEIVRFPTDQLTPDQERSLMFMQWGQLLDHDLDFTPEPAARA
row,MPO kinact/Ki,SMILES
1,946 1/s per M,"COCCn1c(-c2ccc(OC)c3nc(C)ccc23)cc(=O)[nH]c1=S [Example 345, 1-(2-methoxyethyl)-6-(8-methoxy-2-methylquinolin-5-yl)-2-thioxo-2,3-dihydropyrimidin-4(1H)-one]"
2,430 1/s per M,"COCCn1c(-c2cncnc2)cc(=O)[nH]c1=S [Example 280, 3-(2-methoxyethyl)-2-thioxo-2,3-dihydro-4,5′-bipyrimidin-6(1H)-one]"
3,5210 1/s per M,"COCCn1c(-c2cc(OC)cc(OC)c2)cc(=O)[nH]c1=S [Example 330, 6-(3,5-dimethoxyphenyl)-1-(2-methoxyethyl)-2-thioxo-2,3-dihydropyrimidin-4(1H)-one]"
4,4230 1/s per M,"COCCn1c(-c2ccccc2O)cc(=O)[nH]c1=S [Example 288, 6-(2-hydroxyphenyl)-1-(2-methoxyethyl)-2-thioxo-2,3-dihydropyrimidin-4(1H)-one]"
5,2800 1/s per M,"COCCn1c(-c2cccc3cccnc23)cc(=O)[nH]c1=S [Example 322, 1-(2-methoxyethyl)-6-quinolin-8-yl-2-thioxo-2,3-dihydropyrimidin-4(1H)-one]"

# More lines, now with the values behind:
row,SMILES,MPO kinact/Ki
1,"COc1cc(OC)c(-c2cc(=O)[nH]c(=S)n2CCN)cc1OC [Example 198, 1-(2-aminoethyl)-2-thioxo-6-(2,4,5-trimethoxyphenyl)-2,3-dihydropyrimidin-4(1H)-one hydrochloride]",8460 1/s per M
2,"COc1ccc(Cl)cc1-c1cc(=O)[nH]c(=S)n1CCCN=C(N)N [Example 133, 2-{3-[6-(5-chloro-2-methoxyphenyl)-4-oxo-2-thioxo-3,4-dihydropyrimidin-1(2H)-yl]propyl} guanidine]",15300 1/s per M
3,"COc1ccc(-c2cc(=O)[nH]c(=S)n2CCNS(C)(=O)=O)c(OC)c1 [Example 257, N-{2-[6-(2,4-dimethoxyphenyl)-4-oxo-2-thioxo-3,4-dihydropyrimidin-1(2H)-yl]ethyl}methanesulfonamide]",3700 1/s per M
4,"COc1ccc(OC)c(-c2cc(=O)[nH]c(=S)n2CCCN=C(N)N)c1 [Example 131, 2-{3-[6-(2,5-dimethoxyphenyl)-4-oxo-2-thioxo-3,4-dihydropyrimidin-1(2H)-yl]propyl} guanidine trifluoroacetate]",14500 1/s per M
5,"COCCn1c(-c2cc(OC)ccc2OC)cc(=O)[nH]c1=S [Example 9, 6-(2,5-dimethoxyphenyl)-1-(2-methoxyethyl)-2-thioxo-2,3-dihydropyrimidin-4(1H)-one]",15000 1/s per M
6,"NCCn1c(-c2cccc3[nH]ccc23)cc(=O)[nH]c1=S [Example 142, 1-(2-aminoethyl)-6-(1H-indol-4-yl)-2-thioxo-2,3-dihydropyrimidin-4(1H)-one trifluoroacetate]",4210 1/s per M
7,"COc1ccc(-c2cc(=O)[nH]c(=S)n2C(C)C(N)=O)c(OC)c1 (stereo not shown) [Example 188, 2-[6-(2,4-dimethoxyphenyl)-4-oxo-2-thioxo-3,4-dihydropyrimidin-1(2H)-yl]propanamide]",2180 1/s per M
8,"COc1ccc(-c2cc(=O)[nH]c(=S)n2CCN)c(OC)c1 [Example 6, 1-(2-aminoethyl)-6-(2,4-dimethoxyphenyl)-2-thioxo-2,3-dihydropyrimidin-4(1H)-one hydrochloride]",12900 1/s per M
9,"COc1ccc(Cl)cc1-c1cc(=O)[nH]c(=S)n1CCCNC(C)=O [Example 134, N-{3-[6-(5-chloro-2-methoxyphenyl)-4-oxo-2-thioxo-3,4-dihydropyrimidin-1(2H)-yl]propyl} acetamide]",5350 1/s per M
10,"COc1nc(C)ccc1-c1cc(=O)[nH]c(=S)n1CCO [Example 21, 1-(2-hydroxyethyl)-6-(2-methoxy-6-methylpyridin-3-yl)-2-thioxo-2,3-dihydropyrimidin-4(1H)-one]",4530 1/s per M
11,"CNC(=O)Cn1c(-c2ccc(OC)cc2OC)cc(=O)[nH]c1=S [Example 190, 2-[6-(2,4-dimethoxyphenyl)-4-oxo-2-thioxo-3,4-dihydropyrimidin-1(2H)-yl]-N-methylacetamide]",4090 1/s per M
12,"NC(=O)Cn1c(-c2csc3ccccc23)cc(=O)[nH]c1=S [Example 68, 2-[6-(1-benzothien-3-yl)-4-oxo-2-thioxo-3,4-dihydropyrimidin-1(2H)-yl]acetamide]",1160 1/s per M
13,"COc1cccc(OC)c1-c1cc(=O)[nH]c(=S)n1CCO [Example 167, 6-(2,6-dimethoxyphenyl)-1-(2-hydroxyethyl)-2-thioxo-2,3-dihydropyrimidin-4(1H)-one]",20300 1/s per M
14,"COc1ccc(-c2cc(=O)[nH]c(=S)n2CCC2CCN(C(C)=O)CC2)c(OC)c1 [Example 153, 1-[2-(1-acetylpiperidin-4-yl)ethyl]-6-(2,4-dimethoxyphenyl)-2-thioxo-2,3-dihydropyrimidin-4(1H)-one]",2200 1/s per M
15,"COc1ccc(OC)c(-c2cc(=O)[nH]c(=S)n2CCCN)c1 [Example 87, 1-(3-aminopropyl)-6-(2,5-dimethoxyphenyl)-2-thioxo-2,3-dihydropyrimidin-4(1H)-one hydrochloride]",15400 1/s per M
16,"COc1ncc(C)cc1-c1cc(=O)[nH]c(=S)n1CC(N)=O [Example 44, 2-[6-(2-methoxy-5-methylpyridin-3-yl)-4-oxo-2-thioxo-3,4-dihydropyrimidin-1(2H)-yl]acetamide]",3440 1/s per M
17,"COc1ccc(C#N)cc1-c1cc(=O)[nH]c(=S)n1CC(N)=O [Example 170, 2-[6-(5-cyano-2-methoxyphenyl)-4-oxo-2-thioxo-3,4-dihydropyrimidin-1(2H)-yl]acetamide]",4030 1/s per M
18,"COc1ccccc1-c1cc(=O)[nH]c(=S)n1CCCN=C(N)N [Example 103, 2-{3-[6-(2-methoxyphenyl)-4-oxo-2-thioxo-3,4-dihydropyrimidin-1(2H)-yl]propyl} guanidine]",41800 1/s per M
19,"COc1cc(OC)cc(-c2cc(=O)[nH]c(=S)n2CCO)c1 [Example 54, 6-(3,5-dimethoxyphenyl)-1-(2-hydroxyethyl)-2-thioxo-2,3-dihydropyrimidin-4(1H)-one]",7070 1/s per M
20,"COCCn1c(-c2cccc3sccc23)cc(=O)[nH]c1=S [Example 74, 6-(1-benzothien-4-yl)-1-(2-methoxyethyl)-2-thioxo-2,3-dihydropyrimidin-4(1H)-one]",14400 1/s per M
21,"COc1cc(OC)c(-c2cc(=O)[nH]c(=S)n2CCN=C(N)N)cc1OC [Example 138, 2-{2-[4-oxo-2-thioxo-6-(2,4,5-trimethoxyphenyl)-3,4-dihydropyrimidin-1(2H)-yl]ethyl}guanidine hydrochloride]",4530 1/s per M
22,"COc1cc(OC)c(-c2cc(=O)[nH]c(=S)n2CCCN)cc1Cl [Example 129, 1-(3-aminopropyl)-6-(5-chloro-2,4-dimethoxyphenyl)-2-thioxo-2,3-dihydropyrimidin-4(1H)-one hydrochloride]",18700 1/s per M
23,"O=c1cc(-c2cc3ccccc3s2)n(CCO)c(=S)[nH]1 [Example 40, 6-(1-benzothien-2-yl)-1-(2-hydroxyethyl)-2-thioxo-2,3-dihydropyrimidin-4(1H)-one]",6430 1/s per M

# Same assay, conditions: Table 1A, 2 μM H2O2, pH 7.4
row,MPO kinact/Ki,SMILES
1,15000 1/s per M,"O=c1cc(-c2cc(F)ccc2OCCO)n(CCO)c(=S)[nH]1 [Example 411, 6-[5-fluoro-2-(2-hydroxyethoxy)phenyl]-1-(2-hydroxyethyl)-2-thioxo-2,3-dihydropyrimidin-4(1H)-one]"
2,18700 1/s per M,"N=C(N)NCCCn1c(-c2cc(F)ccc2OCCO)cc(=O)[nH]c1=S [Example 407, 1-(3-{6-[5-fluoro-2-(2-hydroxyethoxy)phenyl]-4-oxo-2-thioxo-3,4-dihydropyrimidin-1(2H)-yl}propyl)guanidine]"
3,7550 1/s per M,"COc1ccc(-c2cc(=O)[nH]c(=S)n2CC(=O)NC2CNC2)c(OC)c1 [Example 438, N-(azetidin-3-yl)-2-[6-(2,4-dimethoxyphenyl)-4-oxo-2-thioxo-3,4-dihydropyrimidin-1(2H)-yl]acetamide]"
4,1200 1/s per M,"COc1ccc(F)cc1-c1cc(=O)[nH]c(=S)n1CCONC(=N)N [Example 419, 1-{2-[6-(5-fluoro-2-methoxyphenyl)-4-oxo-2-thioxo-3,4-dihydropyrimidin-1(2H)-yl]ethoxy}guanidine]"
5,6200 1/s per M,"COc1ccc(-c2cc(=O)[nH]c(=S)n2CC(=O)NCCN)c(OCCO)c1 [Example 404, N-(2-aminoethyl)-2-{6-[2-(2-hydroxyethoxy)-4-methoxyphenyl]-4-oxo-2-thioxo-3,4-dihydropyrimidin-1(2H)-yl}acetamide]"
6,14200 1/s per M,"COc1ccc(-c2cc(=O)[nH]c(=S)n2CCC(=O)NC(=N)N)c(OC)c1 [Example 446, N-carbamimidoyl-3-{6-(2,4-dimethoxyphenyl)-4-oxo-2-thioxo-3,4-dihydropyrimidin-1(2H)-yl]propanamide]"
7,10900 1/s per M,"COc1ccc(-c2cc(=O)[nH]c(=S)n2CC(=O)NC[C@H](C)N)c(OC)c1 [Example 396, N-[(2S)-2-aminopropyl]-2-[6-(2,4-dimethoxyphenyl)-4-oxo-2-thioxo-3,4-dihydropyrimidin-1(2H)-yl]acetamide]"
8,3440 1/s per M,"COc1ccc(-c2cc(=O)[nH]c(=S)n2CC(=O)N2CC(N)C2)c(OC)c1 [Example 431, 1-[2-(3-aminoazetidin-1-yl)-2-oxoethyl]-6-(2,4-dimethoxyphenyl)-2-thioxo-2,3-dihydropyrimidin-4(1H)-one]"
9,4470 1/s per M,"COc1ccc(OCCO)c(-c2cc(=O)[nH]c(=S)n2CC(N)=O)c1 [Example 380, 2-{6-[2-(2-hydroxyethoxy)-5-methoxyphenyl]-4-oxo-2-thioxo-3,4-dihydropyrimidin-1(2H)-yl}acetamide]"
